Test results from patent US20240197682A1, “METHOD FOR TREATING NEUROLOGICAL DISEASES USING SUPRAMOLECULE POLYMER THERAPEUTICS” (The Regents of the University of California, priority 2022, published 2024).
Where two headings read alike, the source gives them in different places.

What was measured:
[1] = target: T1, YFP-tagged full length 0N4R-Tau P301S aggregates seeded by 416-AD11A lysate (T24 cells) (Homo sapiens, UniProt P10636, P618S); test: Tau-AD high throughput screening (counter screen) in T24 cells; type: cell-based; details: T24 cells transfected with 416-AD11A lysate
T1 construct: C-terminally YFP-tagged full length 0N4R-Tau carrying a P301S mutation; expressed in transfected cells
T1 sequence (P10636 1-383 isoform P10636-6 P243S): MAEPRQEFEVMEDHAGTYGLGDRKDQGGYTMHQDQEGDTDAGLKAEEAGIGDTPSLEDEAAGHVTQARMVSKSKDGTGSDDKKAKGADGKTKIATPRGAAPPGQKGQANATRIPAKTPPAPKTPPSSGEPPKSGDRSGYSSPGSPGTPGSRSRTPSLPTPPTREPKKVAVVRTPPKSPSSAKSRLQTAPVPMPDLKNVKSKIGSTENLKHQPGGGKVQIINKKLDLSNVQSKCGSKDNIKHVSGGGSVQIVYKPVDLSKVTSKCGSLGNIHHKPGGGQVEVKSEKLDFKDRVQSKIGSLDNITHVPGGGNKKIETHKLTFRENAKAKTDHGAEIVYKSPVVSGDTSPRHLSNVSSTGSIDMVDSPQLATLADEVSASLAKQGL
Protocol: A fragment of the Middle Tempral Gyrus (MTG) from Alzheimer's Disease (AD) patient 2217 was resuspended in 9 volumes of PBS (ml/g of brain) and homogenized 3×12 seconds using a probe homogenizer (Thomas Scientific) with disposable Omni Tip plastic homogenizing probes (Thomas Scinetific Cat No 3409Y77) to generate a 10% brain homogenate (10% AD11-BH). The 10% AD11-BH was clarified of insoluble debris by centrifugation at 800×g for 5 minutes. The resulting supernatant was collected and the protein concentration of this clarified BH (AD11-CBH) was determined by bicinchoninic acid assay (BCA) (Thermo Fisher Cat No. 23227). HEK293 cells stably expressing a C-terminally Clover-tagged truncated 4R-Tau^243-382 transgene containing the P301L and V337M mutations and a C-terminally Ruby-tagged truncated 3R-Tau^243-382 transgene containing the L266V and V337M mutations (128/139 cells) were transfected with the AD11-CBH using lipofectamine 2000 (LF2K) (Thermo Fisher Cat No. 11668500). Briefly, 0.32 μl of LF2K were diluted in 5 μl Opti-MEM (Thermo Scientific Cat No 31985070) per well of a 384-well plate and incubated for 5 min at room temperature (RT). This mixture was added to 0.32 μg of AD11-CBH diluted in 5 μl of PBS per well of a 384-well plate and vortex briefly. The transfection mixture was incubated at room temperature for 90 min. The transfection complexes were subsequently added to a single well of a 384-well plate containing 3500 128/139 cells. After 3 days the cells were harvested, counted and plated at a density of 1 cell/well in a 96-well plate. A clonal cell line containing Clover and Ruby positive Tau aggregates was selected and termed 416-AD11A cells. Following the expansion of these 416-AD11A cells, a cell lysate was prepared by freeze/thaw. The cells from a confluent T175 flask were harvested in 1 ml of PBS containing 1× protease inhibitor cocktail by scraping. The cell suspension was subjected to 4 cycles of freezing in liquid nitrogen for 5 minutes followed by thawing at 37° C. for 5 minutes. The resulting cell lysate was centrifuged at 2000 RPM for 10 minutes to remove the cell debris and the protein concentration of the resulting 416-AD11A lysate was determined by BCA assay and aliquots frozen for future use.
HEK293 cells stably expressing C-terminally YFP-tagged full length 0N4R-Tau carrying a P301S mutation (T24 cells) are plated at a density of 4000 cells per well of a 384-well black walled, clear bottom plate (Greiner Cat No 5678-1091Q) in 60 μl of complete DMEM (DMEM (Corning Cat No 10-013-CV), 10% FBS (VWR Cat No 97068-085, 0.5% Penicilin/streptomycin (Gibco Cat No 15140-122)) containing 0.1 μg/ml Hoechst Dye (Thermo Scientific Cat No H3570). Transfection complexes are prepared by diluting 0.15 μg of 416-AD11A lysate or HEK lysate in 5 μl of PBS per well to be transfected and 0.15 μl of Lipofectamine 2000 (LF2K) (ThermoFisher Cat No 11668500) in 5 μl of Opti-MEM per well to be transfected in separate tubes. The pre-diluted 416-AD11A or HEK lysates and LF2K are subsequently mixed and allowed to incubate for 90 minutes at RT. A 10 μl aliquot of the 416-AD11A or HEK transfection complexes is added to the appropriate wells of the 384-well plate containing the T24 cells using the Bravo liquid handling platform (Agilent). Wells A23-P24 of the 384-well plate are transfected with HEK lysate to act as a reference point for spontaneous aggregation of 0N4R^P301S and for transfection related toxicity. The dilution of test compounds is performed using the Bravo liquid handling platform (Agilent). The control is DMSO in the absence of any test compound. Briefly, 1 μl of each test compound (5 mM stock) in the 384-well test plate was transferred to a 384-well plate (Greiner Cat No 781280) containing 61.5 μl of complete DMEM to generate a working stock of compounds at 80 μM. […]

[2] = Parallel Artificial Membrane Permeability Assay (PAMPA); type: in vitro ADME; details: for Papp at 4 hr, 200 uM: PAMPA, read-out: PAMPA: P_app; for PAMPA: P_app: 200 uM test compound, 4 hr
Protocol: 5 uL of 1% lecithin (VWR 0579) dissolved in n-dodecane (Sigma Aldrich D221104) was applied to each well of a MultiScreen IP PAMPA filter plate (Millipore MAIPSWU10) and allowed to equilibrate for 5 minutes. 300 uL of PBS was added to the acceptor plate and 150 uL of 200 uM test compound dissolved in PBS and 30% ethanol was added to the donor wells before incubating the donor plate in the acceptor plate for 4 hr at 500 rpm. 100 uL was sampled from the donor and acceptor wells and the concentrations were measured by liquid chromatography-mass spectrometry (SCIEX 4500) or UV-VIS plate reader (BMG).

Structure (SMILES) | AD Tau Aggregates (% control) [1] [% control] | other results
CNc1nc(=O)n(-c2nc(-c3ccc(Cl)cc3)oc2-c2ccc(Cl)c(F)c2)cc1F.Cl [Compound 126, 1-(5-(4-chloro-3-fluorophenyl)-2-(4-chlorophenyl)oxazol-4-yl)-5-fluoro-4-(methylamino)pyrimidin-2(1H)-one hydrochloride] | 93 | –
CCNc1nc(=O)n(-c2nc(-c3ccc(Cl)cc3)oc2-c2ccc(Cl)c(F)c2)cc1F [Compound 127, 1-(5-(4-chloro-3-fluorophenyl)-2-(4-chlorophenyl)oxazol-4-yl)-4-(ethylamino)-5-fluoropyrimidin-2(1H)-one] | 105 | –
CNc1nc(=O)n(-c2nc(-c3ccc(C)s3)oc2-c2ccc(Cl)c(F)c2)cc1F [Compound 132, 1-(5-(4-chloro-3-fluorophenyl)-2-(5-methylthiophen-2-yl)oxazol-4-yl)-5-fluoro-4-(methylamino)pyrimidin-2(1H)-one] | 95 | –
CNc1nc(=O)n(-c2nc(-c3cccc(C)c3)oc2-c2ccc(F)c(F)c2)cc1F.Cl [Compound 133, 1-(5-(3,4-difluorophenyl)-2-(m-tolyl)oxazol-4-yl)-5-fluoro-4-(methylamino)pyrimidin-2(1H)-one hydrochloride] | 92 | –
CNc1nc(=O)n(-c2nc(-c3cccc(C)c3)oc2-c2cc(Cl)cs2)cc1F [Compound 135, 1-(5-(4-chlorothiophen-2-yl)-2-(m-tolyl)oxazol-4-yl)-5-fluoro-4-(methylamino)pyrimidin-2(1H)-one] | 100 | –
O=C(Cn1cc(-c2ccoc2)c(=O)c2ccc(N3CCCC3)cc21)Nc1ccccc1C(F)(F)F [Compound 149, 2-[3-(furan-3-yl)-4-oxo-7-(pyrrolidin-1-yl)-1,4-dihydroquinolin-1-yl]-N-[2-(trifluoromethyl)phenyl]acetamide] | 100 | Papp at 4 hr, 200 uM ([2]; pH 5.0, 200 uM test compound): 16.9 ×10⁻⁶ cm/s; Papp at 4 hr, 200 uM ([2]; pH 7.4, 200 uM test compound): 11.2 ×10⁻⁶ cm/s
CC(=O)Cc1nccc2cc(-c3nc(-n4ccc5cccnc5c4=O)c(-c4ccc(C(F)(F)F)cc4)o3)ccc12 [Compound 176, 7-(2-(1-(2-oxopropyl)isoquinolin-6-yl)-5-(4-(trifluoromethyl)phenyl)oxazol-4-yl)-1,7-naphthyridin-8(7H)-one] | 96 | –
CC(O)COc1ccc(-c2nc(-n3cc4ccoc4nc3=O)c(-c3ccc(F)cc3)o2)cc1 (stereo not shown) [Compound 182, 3-[5-(4-fluorophenyl)-2-[4-(2-hydroxypropoxy)phenyl]-1,3-oxazol-4-yl]-2H,3H-furo[2,3-d]pyrimidin-2-one] | 93 | –
Cc1cc(-c2nc(-n3cc4ccn(C5CC5)c4nc3=O)c(-c3ccc(Cl)c(F)c3)o2)ccn1 [Compound 232, 3-[5-(4-chloro-3-fluorophenyl)-2-(2-methylpyridin-4-yl)-1,3-oxazol-4-yl]-7-cyclopropyl-2H,3H,7H-pyrrolo[2,3-d]pyrimidin-2-one] | 91 | –
Cc1cc(-c2nc(-n3cc4ccn(C5CC5)c4nc3=O)c(-c3ccc(F)c(F)c3)o2)ncc1F [Compound 234] | 85 | –
Cc1ccnn1-c1nc(-n2cc3ccn(C(F)(F)F)c3nc2=O)c(-c2ccc(F)cc2)o1 [Compound 240] | 95 | PAMPA: P_app ([2]; pH 7.4): 2.41 ×10e−6 cm/sec
Cc1ccn(-c2nc(-n3cc4ccn(C(F)(F)F)c4nc3=O)c(-c3ccc(F)cc3)o2)n1 [Compound 241] | 98 | PAMPA: P_app ([2]; pH 7.4): 1.36 ×10e−6 cm/sec
O=c1nc2c(ccn2C(F)(F)F)cn1-c1nc(N2Cc3ccccc3C2)oc1-c1ccc(F)cc1 [Compound 242] | 99 | PAMPA: P_app ([2]; pH 7.4): 5.72 ×10e−6 cm/sec
CNC(=O)c1ncc2c(-c3ccccc3Cl)nn(-c3ccc(F)cc3)c2n1 [Compound 244] | 100 | PAMPA: P_app ([2]; pH 5.0): >50 ×10e−6 cm/sec; PAMPA: P_app ([2]; pH 7.4): 45 ×10e−6 cm/sec
CNC(=O)c1ncc2c(N3CCCC3)nn(-c3ccc(F)cc3)c2n1 [Compound 247, 1-(4-fluorophenyl)-N-methyl-3-(pyrrolidin-1-yl)-1H-pyrazolo[3,4-d]pyrimidine-6-carboxamide] | 120 | –
CNC(=O)c1ncc2c(-c3cc4c(cnn4C)cc3F)nn(Cc3ccccc3)c2n1 [Compound 253] | 96 | –
CNC(=O)c1ncc2c(-c3cccc4c3OC(F)(F)O4)nn(Cc3ccccc3)c2n1 [Compound 254] | 100 | –
CNC(=O)c1ncc2c(-c3ccc(F)cc3)nn(C3CCc4ccc(F)cc43)c2n1 (stereo not shown) [Compound 257, 1-(6-fluoro-2,3-dihydro-1H-inden-1-yl)-3-(4-fluorophenyl)-N-methyl-1H-pyrazolo[3,4-d]pyrimidine-6-carboxamide] | 100 | –
CNC(=O)c1ncc2c(-c3ccc(F)cc3)nn(CC3CCCCC3)c2n1 [Compound 258] | 110 | –
CNC(=O)c1ncc2c(-c3ccc(F)cc3)nn(Cc3ccnc(F)c3)c2n1 [Compound 259] | 99 | –
CNC(=O)c1ncc2c(-c3ccc(F)cc3)nn(Cc3cccc(F)c3)c2n1 [Compound 260] | 95 | –
CNC(=O)c1ncc2c(-c3ccc(F)cc3)nn(Cc3ccc(F)cc3)c2n1 [Compound 261] | 87 | –
CC(=O)Nc1ncc2c(-c3ccccc3)nn(C(C)c3ccccc3)c2n1 (stereo not shown) [Compound 265] | 110 | –
CC(=O)Nc1ncc2c(-c3ccccc3C#N)nn(Cc3ccccc3)c2n1 [Compound 268] | 105 | –
c1ccc(Cn2nc(-c3ccccc3)c3cnc(-c4cnn[nH]4)nc32)cc1 [Compound 284, 1-benzyl-3-phenyl-6-(1H-1,2,3-triazol-5-yl)-1H-pyrazolo[3,4-d]pyrimidine] | – | Papp at 4 hr, 200 uM ([2]; pH 5.0, 200 uM test compound): > 50 ×10⁻⁶ cm/s; PAMPA: P_app ([2]; pH 7.4): >50 ×10e−6 cm/sec
CNc1ncc2c(-c3ccccc3)nn(-c3ccccc3)c2n1 [Compound 286, N-methyl-1,3-diphenyl-1H-pyrazolo[3,4-d]pyrimidin-6-amine] | 100 | –
CNC(=O)c1ncc2c(-c3ccccc3)cn(-c3ccccc3)c2n1 [Compound 291, N-methyl-5,7-diphenyl-7H-pyrrolo[2,3-d]pyrimidine-2-carboxamide] | 110 | –
CNC(=O)c1cc2c(-c3ccccc3)nn(-c3ccc(F)cc3)c2o1 [Compound 292] | – | PAMPA: P_app ([2]; pH 5.0): 7.9 ×10e−6 cm/sec; PAMPA: P_app ([2]; pH 7.4): 13.5 ×10e−6 cm/sec
